Laboratory results from ChEMBL document CHEMBL3885881, “DrugMatrix”.

Experiments:
[1] = species on record: Rattus norvegicus; assay: DrugMatrix - Regimen: Daily Repeat; assay type: toxicity, organism-based, Sprague-Dawley; parameters: regimen Daily Repeat, gender Male, age 6-8 weeks; details: in vivo, po, 1200 mg/kg, […], route oral GAVAGE, dose level High, time 14 day
[2] = species on record: Rattus norvegicus; assay type: toxicity, organism-based, Sprague-Dawley; details: in vivo, po, 24 h, route oral GAVAGE, time 1 day, […]; for MEAN CORPUSCULAR HEMOGLOBIN CONCENTRATION / MEAN CORPUSCULAR VOLUME / ABSOLUTE BASOPHIL / ABSOLUTE EOSINOPHIL / ABSOLUTE LYMPHOCYTE / ABSOLUTE MONOCYTE / BASOPHIL / EOSINOPHIL / ERYTHROCYTE COUNT / HEMATOCRIT / HEMOGLOBIN / LEUKOCYTE COUNT / LYMPHOCYTE / MEAN CORPUSCULAR HEMOGLOBIN / MONOCYTE / NEUTROPHIL / PLATELET COUNT: tissue Blood; for ALANINE AMINOTRANSFERASE / ALBUMIN / ALKALINE PHOSPHATASE / ASPARTATE AMINOTRANSFERASE / BLOOD UREA NITROGEN / CARBON DIOXIDE / CHLORIDE / CHOLESTEROL / CREATINE PHOSPHOKINASE / CREATININE / GLUCOSE / LACTATE DEHYDROGENASE / LIPASE / PHOSPHORUS / POTASSIUM / SODIUM / TOTAL BILIRUBIN / TOTAL PROTEIN / URIC ACID: tissue Plasma
Description: DrugMatrix - Regimen: Single

[3] = 0 mg/kg, vehicle control, dose level Control

CC[C@H](C)C(=O)O[C@H]1C[C@H](O)C=C2C=C[C@H](C)[C@H](CC[C@@H](O)C[C@@H](O)CC(=O)O)[C@H]21 [PRAVASTATIN]
MONOCYTE ([1]; tissue Blood): 6.57% | NEUTROPHIL ([1]; tissue Blood): 58.53% | PLATELET COUNT ([1]; tissue Blood): 1135 x10E3/uL | ALANINE AMINOTRANSFERASE ([1]; tissue Plasma): 669.33 u/L | ALBUMIN ([1]; tissue Plasma): 3.17 G/DL | ALKALINE PHOSPHATASE ([1]; tissue Plasma): 461 u/L | ASPARTATE AMINOTRANSFERASE ([1]; tissue Plasma): 5256.67 u/L | BLOOD UREA NITROGEN ([1]; tissue Plasma): 60.67 mg/dL | CARBON DIOXIDE ([1]; tissue Plasma): 33.33 mmol/L | CHLORIDE ([1]; tissue Plasma): 95.67 MEQ/L | CHOLESTEROL ([1]; tissue Plasma): 47 mg/dL | CREATINE PHOSPHOKINASE ([1]; tissue Plasma): 10626.67 u/L | CREATININE ([1]; tissue Plasma): 0.97 mg/dL | GLUCOSE ([1]; tissue Plasma): 113.67 mg/dL | LACTATE DEHYDROGENASE ([1]; tissue Plasma): 1229.67 u/L | LIPASE ([1]; tissue Plasma): 228.5 u/L | PHOSPHORUS ([1]; tissue Plasma): 11.03 mg/dL | POTASSIUM ([1]; tissue Plasma): 6.93 MEQ/L | SODIUM ([1]; tissue Plasma): 141 MEQ/L | TOTAL BILIRUBIN ([1]; tissue Plasma): 0.3 mg/dL | TOTAL PROTEIN ([1]; tissue Plasma): 5.53 G/DL | URIC ACID ([1]; tissue Plasma): 1.53 mg/dL | MEAN CORPUSCULAR HEMOGLOBIN CONCENTRATION ([2]; 0 mg/kg, dose level Control): 30.5 G/DL | MEAN CORPUSCULAR VOLUME ([2]; 0 mg/kg, dose level Control): 67.21 fL | ABSOLUTE BASOPHIL [2, 3]: 50 cells/µL | ABSOLUTE EOSINOPHIL [2, 3]: 32.5 cells/µL | ABSOLUTE LYMPHOCYTE [2, 3]: 7980 cells/µL | ABSOLUTE MONOCYTE [2, 3]: 170 cells/µL | BASOPHIL [2, 3]: 0.58% | EOSINOPHIL [2, 3]: 0.34% | ERYTHROCYTE COUNT [2, 3]: 6.56 x10E6/uL | HEMATOCRIT [2, 3]: 44.14% | HEMOGLOBIN [2, 3]: 13.45 G/DL | LEUKOCYTE COUNT [2, 3]: 9.51 x10E3/uL | LYMPHOCYTE [2, 3]: 83.6% | MEAN CORPUSCULAR HEMOGLOBIN [2, 3]: 20.5 pg | MONOCYTE [2, 3]: 1.86% | NEUTROPHIL [2, 3]: 12.7% | PLATELET COUNT [2, 3]: 1240.38 x10E3/uL | ALANINE AMINOTRANSFERASE [2, 3]: 47.12 u/L | ALBUMIN [2, 3]: 3.59 G/DL | ALKALINE PHOSPHATASE [2, 3]: 461.38 u/L | ASPARTATE AMINOTRANSFERASE [2, 3]: 62.25 u/L | BLOOD UREA NITROGEN [2, 3]: 12.63 mg/dL | CARBON DIOXIDE [2, 3]: 39.5 mmol/L | CHLORIDE [2, 3]: 105.38 MEQ/L | CHOLESTEROL [2, 3]: 74.25 mg/dL | CREATINE PHOSPHOKINASE [2, 3]: 282.88 u/L | CREATININE [2, 3]: 0.61 mg/dL | GLUCOSE [2, 3]: 176.25 mg/dL | LACTATE DEHYDROGENASE [2, 3]: 190.25 u/L | LIPASE [2, 3]: 28 u/L | PHOSPHORUS [2, 3]: 12.68 mg/dL | POTASSIUM [2, 3]: 6.6 MEQ/L | SODIUM [2, 3]: 151.13 MEQ/L | TOTAL BILIRUBIN [2, 3]: 0.34 mg/dL | TOTAL PROTEIN [2, 3]: 6.09 G/DL | URIC ACID [2, 3]: 1.06 mg/dL | ABSOLUTE BASOPHIL ([2]; 1200 mg/kg, dose level High): 12.5 cells/µL | ABSOLUTE EOSINOPHIL ([2]; 1200 mg/kg, dose level High): 41.3 cells/µL | ABSOLUTE LYMPHOCYTE ([2]; 1200 mg/kg, dose level High): 7270 cells/µL | ABSOLUTE MONOCYTE ([2]; 1200 mg/kg, dose level High): 270 cells/µL | BASOPHIL ([2]; 1200 mg/kg, dose level High): 0.35% | EOSINOPHIL ([2]; 1200 mg/kg, dose level High): 0.46% | ERYTHROCYTE COUNT ([2]; 1200 mg/kg, dose level High): 6.38 x10E6/uL | HEMATOCRIT ([2]; 1200 mg/kg, dose level High): 42.34% | HEMOGLOBIN ([2]; 1200 mg/kg, dose level High): 12.95 G/DL | LEUKOCYTE COUNT ([2]; 1200 mg/kg, dose level High): 9.2 x10E3/uL | LYMPHOCYTE ([2]; 1200 mg/kg, dose level High): 78.89% | MEAN CORPUSCULAR HEMOGLOBIN ([2]; 1200 mg/kg, dose level High): 20.29 pg | MEAN CORPUSCULAR HEMOGLOBIN CONCENTRATION ([2]; 1200 mg/kg, dose level High): 30.55 G/DL | MEAN CORPUSCULAR VOLUME ([2]; 1200 mg/kg, dose level High): 66.41 fL | MONOCYTE ([2]; 1200 mg/kg, dose level High): 2.9% | NEUTROPHIL ([2]; 1200 mg/kg, dose level High): 16.21% | PLATELET COUNT ([2]; 1200 mg/kg, dose level High): 1234.38 x10E3/uL | ALANINE AMINOTRANSFERASE ([2]; 1200 mg/kg, dose level High): 73.25 u/L | ALBUMIN ([2]; 1200 mg/kg, dose level High): 3.64 G/DL | ALKALINE PHOSPHATASE ([2]; 1200 mg/kg, dose level High): 563.12 u/L | ASPARTATE AMINOTRANSFERASE ([2]; 1200 mg/kg, dose level High): 74.62 u/L | BLOOD UREA NITROGEN ([2]; 1200 mg/kg, dose level High): 12.25 mg/dL | CARBON DIOXIDE ([2]; 1200 mg/kg, dose level High): 36.62 mmol/L | CHLORIDE ([2]; 1200 mg/kg, dose level High): 108 MEQ/L | CHOLESTEROL ([2]; 1200 mg/kg, dose level High): 74.87 mg/dL | CREATINE PHOSPHOKINASE ([2]; 1200 mg/kg, dose level High): 344.5 u/L | CREATININE ([2]; 1200 mg/kg, dose level High): 0.67 mg/dL | GLUCOSE ([2]; 1200 mg/kg, dose level High): 193.13 mg/dL | LACTATE DEHYDROGENASE ([2]; 1200 mg/kg, dose level High): 126.88 u/L | LIPASE ([2]; 1200 mg/kg, dose level High): 34.88 u/L | PHOSPHORUS ([2]; 1200 mg/kg, dose level High): 12.5 mg/dL | POTASSIUM ([2]; 1200 mg/kg, dose level High): 6.55 MEQ/L | SODIUM ([2]; 1200 mg/kg, dose level High): 153.75 MEQ/L | TOTAL BILIRUBIN ([2]; 1200 mg/kg, dose level High): 0.27 mg/dL | TOTAL PROTEIN ([2]; 1200 mg/kg, dose level High): 6.12 G/DL | URIC ACID ([2]; 1200 mg/kg, dose level High): 1.09 mg/dL
